Test results reported in patent publication US20090263317A1, “METHOD OF SCREENING THE ACTIVITY OF THE SMOOTHENED RECEPTOR TO IDENTIFY THERAPUTIC MODULATION AGENTS OR DIAGNOSE DISEASE” (priority 2005, published 2009).

Target: T1, Smo (Homo sapiens, UniProt Q99835)
T1 construct: expressed in transfected cells; host or cells: HEK293
Test: Membrane recruitment (translocation) of βarr2-GFP, confocal imaging
Assay type: cell-based
Excerpt: Localization of beta-arrestin2 green fluorescent protein (βarr2-GFP) to the plasma membrane in cells overexpressing Smo seen in FIG. 1: Confocal images of βarr2-GFP expressed alone (A) or with Myc-Smo (B) in Human embryonic kidney (HEK)293 cells. (C) Effects of Ptc, ShhN, and G protein coupled receptor kinase (GRK2) on recruitment of βarr2-GFP to the plasma membrane. βarr2-GFP was expressed with Myc-Smo (bar 1), Myc-Smo and FLAG-Ptc (bar 2), Myc-Smo and FLAG-Ptc (co-cultured with HEK293 expressing Sonic hedgehog (Shh)N-terminus, an active form of Shh (bar 3), or Myc-Smo and GRK2 (bar 4) in HEK293 cells. Data are presented as the percentage of βarr2-GFP-13 expressing cells with recruitment of βarr2-GFP and are the means±SEM of three independent experiments. *P<0.05 (compared with bar 1) and **P<0.005 (compared with bar 2) (unpaired t test).
Confocal images of βarr2-GFP expressed with FLAG-Ptc (A), FLAG-Ptc and Myc-Smo (B), and Myc-Smo (C and D) in HEK293 cells. Cells were left untreated (A to C) or treated with 8 μM cyclopamine (D) at 37° C. for 5 min. […] (F and G) Confocal images of cells stimulated with 0.3 μM SAG at 37° C. for 0 min (F) and 30 min (G). HEK293 cells were transfected with βarr2-GFP, FLAG-Ptc, Myc-Smo, and GRK2.

T1 sequence (Q99835 28-787): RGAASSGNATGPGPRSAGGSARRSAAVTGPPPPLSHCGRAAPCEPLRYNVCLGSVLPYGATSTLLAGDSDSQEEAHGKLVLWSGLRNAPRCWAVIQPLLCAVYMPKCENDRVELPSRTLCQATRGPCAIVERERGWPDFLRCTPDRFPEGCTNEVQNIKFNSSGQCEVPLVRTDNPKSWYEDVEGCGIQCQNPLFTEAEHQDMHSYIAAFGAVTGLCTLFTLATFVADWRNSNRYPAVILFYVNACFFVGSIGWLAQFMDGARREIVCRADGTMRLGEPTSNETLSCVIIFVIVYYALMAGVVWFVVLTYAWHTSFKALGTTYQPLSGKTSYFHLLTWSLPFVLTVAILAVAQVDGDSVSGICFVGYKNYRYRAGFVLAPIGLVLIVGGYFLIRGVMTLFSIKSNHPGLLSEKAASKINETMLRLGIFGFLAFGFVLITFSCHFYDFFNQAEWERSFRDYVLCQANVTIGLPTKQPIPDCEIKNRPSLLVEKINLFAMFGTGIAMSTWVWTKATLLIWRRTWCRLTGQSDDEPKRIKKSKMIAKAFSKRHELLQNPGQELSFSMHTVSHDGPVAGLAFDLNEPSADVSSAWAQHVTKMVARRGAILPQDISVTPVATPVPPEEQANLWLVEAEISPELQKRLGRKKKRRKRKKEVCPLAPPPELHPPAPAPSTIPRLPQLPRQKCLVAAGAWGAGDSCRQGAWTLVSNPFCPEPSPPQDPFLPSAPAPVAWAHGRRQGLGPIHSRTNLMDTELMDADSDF

SMILES	Recruitment of βarr2-GFP to the plasma membrane under Ptc inhibition (HEK293 cells transfected with βarr2-GFP, FLAG-Ptc, Myc-Smo and GRK2, 0.3 μM SAG at 37° C., 30 min versus 0 min)	Recruitment of βarr2-GFP to Smo (HEK293 cells expressing βarr2-GFP and Myc-Smo, 8 μM cyclopamine at 37° C. for 5 min, versus untreated)
CNC1CCC(N(Cc2cccc(-c3ccncc3)c2)C(=O)c2sc3ccccc3c2Cl)CC1 (centres unmarked) [SAG]	relieves Ptc inhibition of recruitment of βarr2-GFP to the plasma membrane	–
CC1=C2C[C@H]3[C@@H](CC=C4C[C@@H](O)CC[C@@]43C)[C@@H]2CC[C@]12O[C@@H]1C[C@H](C)CN[C@H]1[C@H]2C [cyclopamine]	–	ablated
